Results on 4 compounds are retold here after ChEMBL document CHEMBL1201862, “PubChem BioAssay data set” (2004).

Assay [1] deals with T1, Nucleotide-binding oligomerization domain-containing protein 2 (Homo sapiens, UniProt Q9HC29). Nature of the assay: inhibition of MDP-driven NOD2 NF-kB reporter – cell-based, set 3, SAR follow-up (AID 2799). The assay is classed as functional.
Assay [2] concerns the target T2, Nucleotide-binding oligomerization domain-containing protein 1 (Homo sapiens, UniProt Q9Y239).
T2 sequence (Q9Y239 whole entry): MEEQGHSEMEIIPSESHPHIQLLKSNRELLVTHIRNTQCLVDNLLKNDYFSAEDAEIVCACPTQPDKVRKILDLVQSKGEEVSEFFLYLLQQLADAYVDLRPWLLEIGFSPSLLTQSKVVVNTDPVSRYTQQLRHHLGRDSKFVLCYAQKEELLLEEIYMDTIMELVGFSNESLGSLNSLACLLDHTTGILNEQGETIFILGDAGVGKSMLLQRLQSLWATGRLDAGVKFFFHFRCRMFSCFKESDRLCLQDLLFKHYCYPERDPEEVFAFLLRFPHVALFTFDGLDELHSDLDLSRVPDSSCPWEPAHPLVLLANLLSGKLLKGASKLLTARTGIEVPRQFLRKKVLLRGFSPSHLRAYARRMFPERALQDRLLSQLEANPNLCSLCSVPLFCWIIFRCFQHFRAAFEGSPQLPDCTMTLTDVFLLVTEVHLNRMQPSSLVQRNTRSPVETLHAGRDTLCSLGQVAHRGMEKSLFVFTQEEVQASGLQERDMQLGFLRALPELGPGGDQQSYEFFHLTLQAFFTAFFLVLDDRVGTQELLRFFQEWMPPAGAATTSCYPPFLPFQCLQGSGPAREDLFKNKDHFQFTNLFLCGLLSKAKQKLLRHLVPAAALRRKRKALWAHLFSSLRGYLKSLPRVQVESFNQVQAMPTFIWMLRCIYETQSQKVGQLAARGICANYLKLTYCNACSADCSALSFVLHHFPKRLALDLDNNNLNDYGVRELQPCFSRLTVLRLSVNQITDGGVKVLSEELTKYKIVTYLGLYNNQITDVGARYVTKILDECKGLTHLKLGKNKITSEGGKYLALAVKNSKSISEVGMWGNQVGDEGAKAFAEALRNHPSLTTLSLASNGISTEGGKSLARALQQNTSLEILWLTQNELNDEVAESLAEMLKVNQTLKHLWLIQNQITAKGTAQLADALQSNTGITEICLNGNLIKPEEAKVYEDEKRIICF
Nature of the assay: SAR analysis of compounds that inhibit NOD1 - Set 2. [Related pubchem assays (depositor defined):AID1566, AID1575, AID1578, AID1849, AID1852, AID2333, AID2335, AID2798]. The format is functional.

Assay [3] concerns the target T2, Nucleotide-binding oligomerization domain-containing protein 1. Description: SAR analysis of NF-kappaB dependent luciferase using DAP as an inducer - Set 2. [Related pubchem assays (depositor defined):AID1566, AID1575, AID1578, AID1579, AID1849, AID1852, AID2264]. The format is functional.
Assay [4] has as its target T3, Interleukin-8 (Homo sapiens, UniProt P10145).
T3 sequence (P10145 whole entry): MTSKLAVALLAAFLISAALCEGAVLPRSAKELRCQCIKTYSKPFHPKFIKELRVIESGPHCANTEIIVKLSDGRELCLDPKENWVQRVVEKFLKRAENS
Nature of the assay: SAR analysis of GM-Tri-DAP induced IL-8 secretion in MCF-7/NOD1 cells - Set 2. [Related pubchem assays (depositor defined):AID1575, AID1578, AID2333]. The assay is classed as functional, cell-based.

Assay [5] has as its system HEK293. Nature of the assay: SAR analysis of compounds that are cytotoxic to HEK293 - Set 3. [Related pubchem assays (depositor defined):AID1575, AID1578, AID1848, AID1849, AID2001, AID2333, AID2334, AID2335, AID2337, AID2469]. The format is functional, cell-based. As to conditions: Homo sapiens.
The target of assay [6] is T3, Interleukin-8. Nature of the assay: SAR analysis of Tumor necrosis factor alpha (TNF-alpha) induced IL-8 secretion in MCF-7/NOD1 cells - Set 2. [Related pubchem assays (depositor defined):AID1575, AID2250, AID2260]. The format is functional, cell-based.
For assay [7], the system named is HEK293. Nature of the assay: SAR analysis of compounds that are cytotoxic to HEK293 - Set 2. [Related pubchem assays (depositor defined):AID1575, AID1578, AID1849, AID2001, AID2333, AID2334, AID2335, AID2337, AID2800]. The assay is classed as functional, cell-based. As to conditions: Homo sapiens.
For another assay, the target named is Tumor necrosis factor (Homo sapiens, UniProt P01375). Nature of the assay: analog potency on TNFa NF-kB signaling – cell-based, set 3, SAR follow-up (AID 2801). The format is functional.
Chain of Tumor necrosis factor (P01375 whole entry, the tested form may be a part): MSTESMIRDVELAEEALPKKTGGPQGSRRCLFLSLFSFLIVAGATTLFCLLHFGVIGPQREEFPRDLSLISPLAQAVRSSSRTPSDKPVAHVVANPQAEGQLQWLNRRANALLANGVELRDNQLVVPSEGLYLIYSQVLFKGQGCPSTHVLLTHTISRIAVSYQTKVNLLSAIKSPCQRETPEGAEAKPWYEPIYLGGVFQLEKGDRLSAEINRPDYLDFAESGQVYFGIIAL
The target in assay [8] is T1, Nucleotide-binding oligomerization domain-containing protein 2. Description: inhibition of NOD2 signaling – set 2, SAR follow-up (AID 2475). The format is functional.
Assay [9] deals with T2, Nucleotide-binding oligomerization domain-containing protein 1. Nature of the assay: SAR analysis of compounds that inhibit NOD1 - Set 3. [Related pubchem assays (depositor defined):AID1566, AID1575, AID1578, AID1849, AID1852, AID2333, AID2335, AID2466]. The format is functional.
The target of assay [10] is T4, G-protein coupled receptor 55 (Homo sapiens, UniProt Q9Y2T6). Nature of the assay: inhibition of LPI-stimulated GPR55 beta-arrestin translocation – imaging, U2OS, beta-arrestin-GFP, LPI agonist, primary screen (AID 2013).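 Also: antagonist potency measured as reduced agonist-driven arrestin aggregation.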 The assay is classed as functional.
T4 sequence (Q9Y2T6 whole entry): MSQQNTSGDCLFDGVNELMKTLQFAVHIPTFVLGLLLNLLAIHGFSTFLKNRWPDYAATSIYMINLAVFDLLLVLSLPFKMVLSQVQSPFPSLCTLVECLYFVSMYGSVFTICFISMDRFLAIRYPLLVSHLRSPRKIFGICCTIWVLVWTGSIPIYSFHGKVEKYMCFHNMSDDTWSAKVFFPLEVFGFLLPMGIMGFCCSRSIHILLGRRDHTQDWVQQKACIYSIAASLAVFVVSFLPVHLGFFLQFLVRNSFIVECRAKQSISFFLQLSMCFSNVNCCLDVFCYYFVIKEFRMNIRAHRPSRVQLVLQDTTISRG
In assay [11] the target is T5, Cannabinoid receptor 1 (Homo sapiens, UniProt P21554). Description: SAR analysis of agonists of the Cannabinoid Receptor 1 using an Image-Based Assay - Set 3. [Related pubchem assays (depositor defined):AID1961, AID1965]. The assay is classed as functional.
T5 sequence (P21554 whole entry): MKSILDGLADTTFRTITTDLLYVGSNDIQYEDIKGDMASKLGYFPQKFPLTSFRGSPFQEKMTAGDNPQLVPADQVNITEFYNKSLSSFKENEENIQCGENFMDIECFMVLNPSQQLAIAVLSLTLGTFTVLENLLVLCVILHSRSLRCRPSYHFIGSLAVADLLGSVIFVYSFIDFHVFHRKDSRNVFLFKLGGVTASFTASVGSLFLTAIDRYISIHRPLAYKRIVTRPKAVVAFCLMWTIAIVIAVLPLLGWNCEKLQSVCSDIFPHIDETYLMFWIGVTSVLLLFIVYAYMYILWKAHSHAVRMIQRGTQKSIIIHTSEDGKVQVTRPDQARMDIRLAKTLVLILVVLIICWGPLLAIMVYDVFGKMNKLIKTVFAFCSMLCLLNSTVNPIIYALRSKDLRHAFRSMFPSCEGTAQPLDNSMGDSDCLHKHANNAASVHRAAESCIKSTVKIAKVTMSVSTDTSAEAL
Assay [12] addresses T6, G-protein coupled receptor 35 (Homo sapiens, UniProt Q9HC97). Nature of the assay: SAR analysis of Agonists of the GPR35 Receptor using an Image-Based Assay - Set 3. [Related pubchem assays (depositor defined):AID1961, AID1965]. The assay is classed as functional.
In assay [13] the target is T4, G-protein coupled receptor 55. Nature of the assay: SAR analysis of selective Agonists of GPR55 using an Image-Based Assay - Set 2. [Related pubchem assays (depositor defined):AID1961, AID1965]. The format is functional.
Assay [14] deals with T7, Cannabinoid receptor 2 (Homo sapiens, UniProt P34972). Description: SAR analysis of agonists of the Cannabinoid Receptor 2 using an Image-Based Assay - Set 2. [Related pubchem assays (depositor defined):AID1961, AID1965]. The assay is classed as functional.
T7 sequence (P34972 whole entry): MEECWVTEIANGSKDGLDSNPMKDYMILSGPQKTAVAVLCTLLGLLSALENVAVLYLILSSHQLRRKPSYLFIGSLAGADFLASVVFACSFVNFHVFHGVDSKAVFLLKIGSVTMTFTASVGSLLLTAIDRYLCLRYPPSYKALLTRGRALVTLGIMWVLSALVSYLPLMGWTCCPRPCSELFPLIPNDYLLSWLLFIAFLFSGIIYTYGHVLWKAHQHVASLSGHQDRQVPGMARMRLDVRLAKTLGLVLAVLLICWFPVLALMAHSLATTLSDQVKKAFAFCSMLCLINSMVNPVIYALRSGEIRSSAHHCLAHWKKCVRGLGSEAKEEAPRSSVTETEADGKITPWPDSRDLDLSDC
Assay [15] has as its target T5, Cannabinoid receptor 1. Description: SAR analysis of antagonists of the Cannabinoid Receptor 1 using an Image-Based Assay - Set 3. [Related pubchem assays (depositor defined):AID1961, AID1965]. The format is functional.
The target of assay [16] is T7, Cannabinoid receptor 2. Nature of the assay: SAR analysis of antagonists of the Cannabinoid Receptor 2 using an Image-Based Assay - Set 2. [Related pubchem assays (depositor defined):AID1961, AID1965]. The format is functional.
Assay [17] deals with T6, G-protein coupled receptor 35. Nature of the assay: SAR analysis of Antagonists of the GPR35 Receptor using an Image-Based Assay - Set 4. [Related pubchem assays (depositor defined):[…]]. The format is functional.
In assay [18] the target is T8, Intestinal-type alkaline phosphatase (Homo sapiens, UniProt P09923). Nature of the assay: human intestinal alkaline phosphatase activators, dose response, biochemical, luminescence, uHTS hits (AID 463120). The assay is classed as functional.
T8 sequence (P09923 whole entry): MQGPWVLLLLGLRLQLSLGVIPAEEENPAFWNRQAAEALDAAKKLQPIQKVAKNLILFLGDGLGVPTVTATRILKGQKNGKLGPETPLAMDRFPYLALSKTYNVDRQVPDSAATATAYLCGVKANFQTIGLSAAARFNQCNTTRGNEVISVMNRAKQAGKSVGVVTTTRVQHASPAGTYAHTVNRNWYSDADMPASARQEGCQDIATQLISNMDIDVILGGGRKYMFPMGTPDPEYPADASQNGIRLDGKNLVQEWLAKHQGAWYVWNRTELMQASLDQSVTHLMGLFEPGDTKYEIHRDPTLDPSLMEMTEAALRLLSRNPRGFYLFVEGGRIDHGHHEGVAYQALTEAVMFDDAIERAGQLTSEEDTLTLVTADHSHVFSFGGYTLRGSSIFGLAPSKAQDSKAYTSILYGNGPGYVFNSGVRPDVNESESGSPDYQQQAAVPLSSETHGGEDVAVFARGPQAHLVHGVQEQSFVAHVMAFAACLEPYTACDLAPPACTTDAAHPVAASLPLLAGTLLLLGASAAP
The target in assay [19] is T8, Intestinal-type alkaline phosphatase. Description: Dose Response confirmation of uHTS hits from a small molecule inhibitors of human intestinal alkaline phosphatase via a luminescent assay. [Related pubchem assays (depositor defined):AID2544, AID2574]. The assay is classed as functional.

Activity calls are given as the source filed them. Where only a bound is given, the exact number is not on record here.

T1 sequence (Q9HC29 whole entry, the tested form may be a part): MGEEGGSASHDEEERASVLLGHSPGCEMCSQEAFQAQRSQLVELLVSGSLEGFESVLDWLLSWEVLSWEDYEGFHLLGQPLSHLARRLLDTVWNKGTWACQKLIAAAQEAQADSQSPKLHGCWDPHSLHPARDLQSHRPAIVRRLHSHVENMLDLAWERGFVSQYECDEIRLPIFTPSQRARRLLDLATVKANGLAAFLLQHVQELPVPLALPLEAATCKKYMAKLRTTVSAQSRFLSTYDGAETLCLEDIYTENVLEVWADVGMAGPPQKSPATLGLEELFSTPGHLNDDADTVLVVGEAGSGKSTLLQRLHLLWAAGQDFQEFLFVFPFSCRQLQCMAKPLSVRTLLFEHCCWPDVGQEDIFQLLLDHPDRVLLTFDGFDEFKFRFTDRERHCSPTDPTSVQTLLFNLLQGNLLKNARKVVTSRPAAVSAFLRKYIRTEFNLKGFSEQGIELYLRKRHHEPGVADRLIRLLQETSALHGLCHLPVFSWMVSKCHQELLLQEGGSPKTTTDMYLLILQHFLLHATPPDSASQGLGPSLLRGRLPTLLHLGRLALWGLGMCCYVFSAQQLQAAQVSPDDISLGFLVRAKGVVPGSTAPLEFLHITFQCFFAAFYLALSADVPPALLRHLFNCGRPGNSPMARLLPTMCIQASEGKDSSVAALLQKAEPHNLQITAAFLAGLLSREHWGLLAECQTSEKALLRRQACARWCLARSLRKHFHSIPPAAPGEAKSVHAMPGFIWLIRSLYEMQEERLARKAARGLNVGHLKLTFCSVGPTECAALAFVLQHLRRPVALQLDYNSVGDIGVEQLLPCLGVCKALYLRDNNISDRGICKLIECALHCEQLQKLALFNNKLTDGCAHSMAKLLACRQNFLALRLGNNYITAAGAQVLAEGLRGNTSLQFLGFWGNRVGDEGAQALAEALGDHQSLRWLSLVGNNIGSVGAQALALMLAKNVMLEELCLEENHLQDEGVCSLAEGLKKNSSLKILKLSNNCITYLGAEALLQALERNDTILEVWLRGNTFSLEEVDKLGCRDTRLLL
T6 sequence (Q9HC97 whole entry): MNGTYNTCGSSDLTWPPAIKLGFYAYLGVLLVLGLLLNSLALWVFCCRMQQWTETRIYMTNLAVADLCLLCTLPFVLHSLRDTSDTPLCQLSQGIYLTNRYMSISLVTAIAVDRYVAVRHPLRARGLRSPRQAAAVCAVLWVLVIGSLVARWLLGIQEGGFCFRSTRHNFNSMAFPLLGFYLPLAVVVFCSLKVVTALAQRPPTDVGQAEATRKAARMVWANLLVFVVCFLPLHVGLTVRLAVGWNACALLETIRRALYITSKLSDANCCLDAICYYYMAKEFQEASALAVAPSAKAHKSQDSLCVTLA

Regarding `C=CCn1c(SCCCc2ccccc2)nc2c1c(=O)[nH]c(=O)n2C`, the IC50 (usually the concentration that inhibits the measured activity by half) was > 20 µM (inactive) in [1]; 9.33 µM (active) in assay [2]; > 25 µM (inactive) in assay [3]; > 25 µM (inactive) on Interleukin-8 [4]; > 20 µM (inactive) in the assay on HEK293 [5]; > 25 µM (inactive) on Interleukin-8 [6]. Moreover, the IC50 was > 20 µM (inactive) with HEK293 [7], > 20 µM (inactive) on Tumor necrosis factor, 14.8 µM (active) in assay [8] and > 20 µM (inactive) in [9].
Regarding `CCOC(=O)c1c(NC(=O)C2=C(C)N=C(S)NC2c2ccc(C)cc2)sc(C)c1C` (stereo not given), the IC50 in [10] was < 0.5 µM (active).
With `CCC1CCc2sc(C(=O)Nc3cc(S(=O)(=O)N4CCOCC4)ccc3OC)cc2C1` (stereo not given), the EC50 (commonly the concentration giving half of the maximal effect) was > 32 µM (inactive) at Cannabinoid receptor 1 [11], > 32 µM (inactive) in [12], 0.409 µM (active) in assay [13] and > 32 µM (inactive) at Cannabinoid receptor 2 [14]. In addition, the IC50 (on Cannabinoid receptor 1 [15]; on Cannabinoid receptor 2 [16]; in [17]) was > 32 µM (inactive) in each case.
Regarding `COc1ccc(CC2CC(=O)N(c3ccc(C)cc3)C2=O)cc1` (stereo not given), the EC50 in [18] is > 100 µM (inactive). Moreover, the IC50 in assay [19] is > 100 µM (inactive).
